Laboratory results published in the Kinase Knowledgebase extract (Sharma et al. 2016).
pIC50: −log10 of the molar value.

Molecular target: PIK3CA (human) (UniProt P42336)
Experiment: Cell-Based Assay
Details: bt20

Sequence of PIK3CA (human) (P42336 whole entry, looked up): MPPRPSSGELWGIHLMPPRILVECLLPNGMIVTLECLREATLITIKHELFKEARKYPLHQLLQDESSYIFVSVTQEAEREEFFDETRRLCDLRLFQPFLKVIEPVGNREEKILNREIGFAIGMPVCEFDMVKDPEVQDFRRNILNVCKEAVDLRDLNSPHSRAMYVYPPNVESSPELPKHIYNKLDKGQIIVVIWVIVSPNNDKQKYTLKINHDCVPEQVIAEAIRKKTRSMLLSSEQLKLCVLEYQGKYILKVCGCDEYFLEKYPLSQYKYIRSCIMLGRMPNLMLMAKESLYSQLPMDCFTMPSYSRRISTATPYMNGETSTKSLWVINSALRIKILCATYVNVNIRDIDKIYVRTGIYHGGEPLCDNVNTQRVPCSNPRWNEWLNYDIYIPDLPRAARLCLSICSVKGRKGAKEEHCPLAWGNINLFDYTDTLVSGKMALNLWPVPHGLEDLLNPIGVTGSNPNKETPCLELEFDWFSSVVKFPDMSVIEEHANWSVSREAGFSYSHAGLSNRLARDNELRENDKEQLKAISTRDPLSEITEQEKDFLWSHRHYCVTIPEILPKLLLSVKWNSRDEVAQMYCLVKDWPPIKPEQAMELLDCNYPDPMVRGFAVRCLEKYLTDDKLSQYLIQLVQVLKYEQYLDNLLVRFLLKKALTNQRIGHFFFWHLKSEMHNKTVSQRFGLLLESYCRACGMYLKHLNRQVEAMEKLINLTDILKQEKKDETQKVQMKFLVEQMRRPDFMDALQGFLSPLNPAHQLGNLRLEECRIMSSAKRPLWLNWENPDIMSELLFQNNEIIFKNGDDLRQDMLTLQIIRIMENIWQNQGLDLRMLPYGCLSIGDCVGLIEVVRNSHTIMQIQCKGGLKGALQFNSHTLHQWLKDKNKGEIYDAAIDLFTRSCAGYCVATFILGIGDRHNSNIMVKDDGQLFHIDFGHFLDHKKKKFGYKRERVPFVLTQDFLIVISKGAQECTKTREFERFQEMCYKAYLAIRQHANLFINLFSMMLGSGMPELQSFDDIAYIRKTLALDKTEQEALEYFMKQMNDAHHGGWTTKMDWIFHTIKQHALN

Row | SMILES | pIC50
1 | COc1ncc(-c2ccc3ncc4c(c3n2)n(C2CCN(CCO)CC2)c(=O)n4C)cn1 | 6.91
2 | Cn1c(=O)n(C2CCN(C(=O)CO)CC2)c2c3nc(-c4cccc5[nH]ncc45)ccc3ncc21 | 7.22
3 | Cc1ccc(-c2ccc3ncc4c(c3n2)n(-c2ccc(C(C)(C)C#N)cc2)c(=O)n4C)cn1 | 7.61
4 | COc1cccc(-c2ccc3ncc4c(c3n2)n(C2CCN(C(C)=O)CC2)c(=O)n4C)c1 | 7.24
5 | Cn1cc(-c2ccc3ncc4c(c3n2)n(-c2ccc(C(C)(C)C#N)cc2)c(=O)n4C)cn1 | 6.94
6 | Cn1c(=O)n(C2CCNCC2)c2c3nc(-c4cnc(N)nc4)ccc3ncc21 | 6.86
7 | CC(=O)N1CCC(n2c(=O)n(C)c3cnc4ccc(-c5ccc(S(C)(=O)=O)cc5)nc4c32)CC1 | 5.59
8 | COc1ncc(-c2ccc3ncc4[nH]c(=O)n(-c5ccc(C(C)(C)C#N)cc5)c4c3n2)cc1F | 6.71
9 | COc1ncc(-c2ccc3ncc4c(c3n2)n([C@H]2CC[C@H](OCCO)CC2)c(=O)n4C)cn1 | 7.58
10 | Cn1c(=O)n([C@H]2CC[C@H](O)CC2)c2c3nc(-c4ccc5[nH]ncc5c4)ccc3ncc21 | 7.69
11 | Cn1c(=O)n(C2CCOCC2)c2c3nc(-c4cnc(N)nc4)ccc3ncc21 | 8.16
12 | CN(C)c1ccc(-c2ccc3ncc4c(c3n2)n(C2CCN(C(=O)CO)CC2)c(=O)n4C)cn1 | 8.21
13 | Cn1cc(-c2ccc3ncc4[nH]c(=O)n(-c5ccc(C(C)(C)C#N)cc5)c4c3n2)cn1 | 7.01
14 | Cn1c(=O)n([C@H]2CC[C@H](O)CC2)c2c3nc(-c4cnc5ccccc5c4)ccc3ncc21 | 8.28
15 | COc1ncc(-c2ccc3ncc4c(c3n2)n(-c2ccc(C(C)(C)C#N)cc2)c(=O)n4C)cc1F | 7.04
16 | CCNC(=O)N1CCC(n2c(=O)n(C)c3cnc4ccc(-c5cnc6ccccc6c5)nc4c32)CC1 | 7.77
17 | Cn1cc(-c2ccc3ncc4c(c3n2)n(C2CCOCC2)c(=O)n4C)cn1 | 7.14
18 | Cn1c(=O)n(C2CCOCC2)c2c3nc(-c4ccn[nH]4)ccc3ncc21 | 6.51
19 | COc1ccc(-c2ccc3ncc4c(c3n2)n(C2CCN(C(C)C)CC2)c(=O)n4C)cn1 | 7.26
20 | COc1ccc(-c2ccc3ncc4[nH]c(=O)n([C@H]5CC[C@H](OCCO)CC5)c4c3n2)cn1 | 7.42
21 | COCCn1c(=O)n(C)c2cnc3ccc(-c4ccc(OC)nc4)nc3c21 | 6.68
22 | CN1CCC(n2c(=O)n(C)c3cnc4ccc(-c5cnc6ccccc6c5)nc4c32)CC1 | 7.93
23 | Cn1c(=O)n(C2CCN(C(=O)C(C)(C)N)CC2)c2c3nc(-c4cnc5ccccc5c4)ccc3ncc21 | 7.93

Row | SMILES | pIC50
24 | COC(=O)N1CCC(n2c(=O)n(C)c3cnc4ccc(-c5cnc6ccccc6c5)nc4c32)CC1 | 8.09
25 | Cn1c(=O)n([C@H]2CC[C@H](OCCO)CC2)c2c3nc(-c4cnc5ccccc5c4)ccc3ncc21 | 7.97
26 | Cn1cc(-c2ccc3ncc4c(c3n2)n(C2CCN(CC(N)=O)CC2)c(=O)n4C)cn1 | 6.63
27 | C[C@H](CO)n1c(=O)n(C)c2cnc3ccc(-c4cnc5[nH]ncc5c4)nc3c21 | 7.08
28 | CNC(=O)N1CCC(n2c(=O)n(C)c3cnc4ccc(-c5ccc(C)nc5)nc4c32)CC1 | 7.23
29 | Cc1ccc(-c2ccc3ncc4c(c3n2)n(C2CCN(C(N)=O)CC2)c(=O)n4C)cn1 | 6.95
30 | COCCN1CCC(n2c(=O)n(C)c3cnc4ccc(-c5ccc(N(C)C)nc5)nc4c32)CC1 | 7.50
31 | COc1ccc(-c2ccc3ncc4c(c3n2)n(C2CCOCC2)c(=O)n4C)cn1 | 7.73
32 | Cn1c(=O)n(C2CCOCC2)c2c3nc(-c4cn[nH]c4)ccc3ncc21 | 7.74
33 | Cn1c(=O)n([C@H]2CC[C@H](O)CC2)c2c3nc(-c4cn[nH]c4)ccc3ncc21 | 7.71
34 | COc1ncc(-c2ccc3ncc4c(c3n2)n(C2CCN(C(=O)CN)CC2)c(=O)n4C)cn1 | 6.74
35 | COc1ccc(-c2ccc3ncc4[nH]c(=O)n([C@H]5CC[C@H](O)CC5)c4c3n2)cn1 | 7.33
36 | Cc1ccc(-c2ccc3ncc4c(c3n2)n([C@H]2CC[C@H](OCCO)CC2)c(=O)n4C)cn1 | 8.06
37 | Cn1cc(-c2ccc3ncc4c(c3n2)n([C@H]2CC[C@H](C(N)=O)CC2)c(=O)n4C)cn1 | 6.65
38 | CCC(=O)N1CCC(n2c(=O)n(C)c3cnc4ccc(-c5cnc6ccccc6c5)nc4c32)CC1 | 8.10
39 | CN(C)c1ccc(-c2ccc3ncc4c(c3n2)n(C2CCN(C(=O)C(C)(C)O)CC2)c(=O)n4C)cn1 | 8.17
40 | Cn1c(=O)n(C2CCN(CC(F)(F)F)CC2)c2c3nc(-c4cnc5ccccc5c4)ccc3ncc21 | 7.83
41 | CN1CCC(n2c(=O)n(C)c3cnc4ccc(-c5cnc6[nH]ncc6c5)nc4c32)CC1 | 7.66
42 | COc1ncc(-c2ccc3ncc4c(c3n2)n([C@H]2CC[C@H](C(N)=O)CC2)c(=O)n4C)cn1 | 7.34
43 | Cc1ccc(-c2ccc3ncc4c(c3n2)n([C@H]2CC[C@H](O)CC2)c(=O)n4C)cn1 | 7.73
44 | CC(C)(C#N)c1ccc(-n2c(=O)[nH]c3cnc4ccc(-c5cnc6ccccc6c5)nc4c32)cc1 | 8.19
45 | CN(C)c1ccc(-c2ccc3ncc4[nH]c(=O)n(-c5ccc(C(C)(C)C#N)cc5)c4c3n2)cn1 | 7.17
46 | CC(=O)N1CCC(n2c(=O)n(C)c3cnc4ccc(-c5ccc(N(C)C)nc5)nc4c32)CC1 | 7.76

Row | SMILES | pIC50
47 | Cc1ccc(-c2ccc3ncc4c(c3n2)n(C2CCOCC2)c(=O)n4CCO)cn1 | 6.37
48 | CN[C@H]1CC[C@H](n2c(=O)n(C)c3cnc4ccc(-c5cnc6ccccc6c5)nc4c32)CC1 | 6.39
49 | CN(C)c1ccc(-c2ccc3ncc4c(c3n2)n(C2CCOCC2)c(=O)n4C)cn1 | 7.54
50 | COc1ncc(-c2ccc3ncc4c(c3n2)n(C2CCN(CC(=O)N(C)C)CC2)c(=O)n4C)cn1 | 7.43
51 | CCOC(=O)N1CCC(n2c(=O)n(C)c3cnc4ccc(-c5cnc6ccccc6c5)nc4c32)CC1 | 7.69
52 | COc1ncc(-c2ccc3ncc4c(c3n2)n(-c2ccc(C(C)(C)C#N)cc2)c(=O)n4C)cn1 | 7.57
53 | CCN1CCC(n2c(=O)n(C)c3cnc4ccc(-c5cnc6ccccc6c5)nc4c32)CC1 | 7.93
54 | Cc1ccc(-c2ccc3ncc4c(c3n2)n(C2CCN(c3ncccn3)CC2)c(=O)n4C)cn1 | 7.38
55 | COc1cccc(-c2ccc3ncc4c(c3n2)n(C2CCN(C(=O)[C@H](C)O)CC2)c(=O)n4C)c1 | 7.46
56 | C[C@@H](O)C(=O)N1CCC(n2c(=O)n(C)c3cnc4ccc(-c5ccc(N(C)C)nc5)nc4c32)CC1 | 8.26
57 | Cc1ccc(-c2ccc3ncc4c(c3n2)n(C2CCN(CC(N)=O)CC2)c(=O)n4C)cn1 | 7.73
58 | CN(C)c1ccc(-c2ccc3ncc4c(c3n2)n(-c2ccc(C(C)(C)C#N)cc2)c(=O)n4C)cn1 | 7.51
59 | CN(C)c1ccc(-c2ccc3ncc4c(c3n2)n(C2CCN(C(N)=O)CC2)c(=O)n4C)cn1 | 7.45
60 | Cc1ccc(-c2ccc3ncc4c(c3n2)n([C@H](C)CO)c(=O)n4C)cn1 | 6.57
61 | CNC(=O)Nc1ccc(-c2ccc3ncc4c(c3n2)n(C2CCN(C(=O)[C@H](C)O)CC2)c(=O)n4C)cc1 | 7.09
62 | CC(=O)N1CCC(n2c(=O)n(C)c3cnc4ccc(-c5ccnc6[nH]ncc56)nc4c32)CC1 | 6.85
63 | COc1cccc(-c2ccc3ncc4c(c3n2)n(C2CCN(C(=O)CO)CC2)c(=O)n4C)c1 | 7.52
64 | COc1ncc(-c2ccc3ncc4c(c3n2)n(C2CCN(C(=O)CN(C)C)CC2)c(=O)n4C)cn1 | 6.76
65 | COc1ncc(-c2ccc3ncc4[nH]c(=O)n(-c5ccc(C(C)(C)C#N)cc5)c4c3n2)cn1 | 7.36
66 | Cn1cc(-c2ccc3ncc4c(c3n2)n(C2CCN(CC(F)(F)F)CC2)c(=O)n4C)cn1 | 6.71
67 | CC(=O)N1CCC(n2c(=O)n(C)c3cnc4ccc(-c5cnc6ccccc6c5)nc4c32)CC1 | 8.34
68 | Cn1c(=O)n(-c2ccc(C(C)(C)C#N)cc2)c2c3nc(-c4cnc5ccccc5c4)ccc3ncc21 | 8.45
69 | COc1ncc(-c2ccc3ncc4c(c3n2)n(C2CCOCC2)c(=O)n4C)cn1 | 7.00

Row | SMILES | pIC50
70 | COc1ncc(-c2ccc3ncc4c(c3n2)n(C2CCNCC2)c(=O)n4C)cn1 | 6.48
71 | Cn1c(=O)n(C2CCNCC2)c2c3nc(-c4cnn(CCO)c4)ccc3ncc21 | 5.49
72 | CN(C)c1ccc(-c2ccc3ncc4c(c3n2)n([C@H]2CC[C@H](OCCO)CC2)c(=O)n4C)cn1 | 7.94
73 | CN(C)c1ccc(-c2ccc3ncc4c(c3n2)n(C2CCN(CC(F)(F)F)CC2)c(=O)n4C)cn1 | 7.74
74 | COc1ncc(-c2ccc3ncc4c(c3n2)n(C2CCN(C)CC2)c(=O)n4C)cn1 | 6.80
75 | CN(C)CC(=O)N1CCC(n2c(=O)n(C)c3cnc4ccc(-c5ccc(N(C)C)nc5)nc4c32)CC1 | 7.82
76 | Cn1cc(-c2ccc3ncc4c(c3n2)n(C2CCN(C(=O)C(C)(C)O)CC2)c(=O)n4C)cn1 | 7.52
77 | Cn1c(=O)n([C@H]2CC[C@H](O)CC2)c2c3nc(-c4cccc5[nH]ccc45)ccc3ncc21 | 8.02
78 | CC(=O)N1CCC(n2c(=O)n(C)c3cnc4ccc(-c5cnn(C)c5)nc4c32)CC1 | 6.88
79 | CNC(=O)N1CCC(n2c(=O)n(C)c3cnc4ccc(-c5ccc(N(C)C)nc5)nc4c32)CC1 | 7.61
80 | COc1ccc(-c2ccc3ncc4c(c3n2)n(C2CCN(C(=O)[C@H](C)O)CC2)c(=O)n4C)cc1 | 7.85
81 | Cn1c(=O)n(C2CCOCC2)c2c3nc(-c4cnn(CCO)c4)ccc3ncc21 | 6.24
82 | CN(C)C(=O)CN1CCC(n2c(=O)n(C)c3cnc4ccc(-c5cnn(C)c5)nc4c32)CC1 | 6.61
83 | CN(C)c1ccc(-c2ccc3ncc4c(c3n2)n(C2CCNCC2)c(=O)n4C)cn1 | 7.61
84 | CN(C)c1ccc(-c2ccc3ncc4c(c3n2)n(C2CCN(C(=O)C(C)(C)C)CC2)c(=O)n4C)cn1 | 7.67
85 | COc1ccc(-c2ccc3ncc4[nH]c(=O)n(-c5ccc(C(C)(C)C#N)cc5)c4c3n2)cn1 | 7.94
86 | Cn1cc(-c2ccc3ncc4c(c3n2)n([C@H]2CC[C@H](O)CC2)c(=O)n4C)cn1 | 6.97
87 | CC(=O)N1CCC(n2c(=O)n(C)c3cnc4ccc(-c5cccc6ncccc56)nc4c32)CC1 | 6.71
88 | O=c1[nH]c2cnc3ccc(-c4cnc5ccccc5c4)nc3c2n1C1CCNCC1 | 6.45
89 | Cn1c(=O)n([C@H]2CC[C@H](N)CC2)c2c3nc(-c4cnc5ccccc5c4)ccc3ncc21 | 7.33
90 | COc1ccc(-c2ccc3ncc4c(c3n2)n(C2CCN(CC(N)=O)CC2)c(=O)n4C)cn1 | 8.15
91 | CNC(=O)N1CCC(n2c(=O)n(C)c3cnc4ccc(-c5ccc(OC)nc5)nc4c32)CC1 | 8.04
